Assay results: patent US6492339B1, “Compositions comprising D-chiro inositol and sulfonylureas and methods of treatment thereof” (Insmed, Incorporated, priority 2001, dated 2002)
Entries after “also recorded” stand apart in the source; their conditions may differ.

Assays:
[1] = tested on: obese patients with type 2 diabetes mellitus; test: Randomized, placebo-controlled, double-blind clinical trial of D-chiro-inositol in combination with a sulfonylurea (fasting biomarkers, HbA1c, lipids); assay type: in vivo, human; settings: for difference to placebo in change of mean HbA1c level (%): baseline to endpoint
Experimental: The objective of this study was to assess the efficacy and safety of D-chiro-inositol when administered as a single oral dose of 1200 mg/day compared to placebo, each in combination with sulfonylureas, for 3 months. Patients were required to have been on sulfonylureas for 3 months prior to study entry without reaching their target dose or with a suboptimal response.
This multicenter, double-blind, parallel-group, placebo-controlled, randomized, fixed-dose clinical study was designed to evaluate 1200 mg/day D-chiro-inositol versus placebo in 270 obese patients with type 2 diabetes mellitus who had been receiving sulfonylureas for at least 3 months without reaching their target or with suboptimal response.
(§1) The study involved 5 scheduled visits. The first visit was the screening visit, followed by a baseline visit up to 2 weeks later. Patients were randomized at the baseline visit, half to 1200 mg/day D-chiro-inositol and half to placebo. and subsequently began 13 weeks of treatment with blinded study medication. There were 3 visits for safety and efficacy assessments, at 4, 8, and 13 weeks after beginning treatment. The 13week visit was the final visit. Patients arrived at the investigational site in a fasted state for all visits. Assessments were to be done at the same time of day at each visit by the same responsible personnel. Medication was taken once a day at the same time of morning, except on visit days, on which the dose was delayed until just after fasting blood samples had been collected.
Patients receiving D-chiro-inositol received four 300 mg capsules once daily for a total daily dose of 1200 mg; placebo patients took 4 placebo capsules once daily. Doses were taken orally, generally in the mornings. Patients were instructed to take their dose in the morning at the same time each day, except on visit days. On visit days, dosing was to be done at the clinic. No instructions were given regarding when to take medication in relation to meals on non-visit days.
(§2) Biomarkers: A meal tolerance test (MTT) was performed at baseline (Visit 2) and the final visit (Visit 5). In addition, blood was drawn at every visit for assessment of fasting glucose and insulin, HbA1c, C-peptide, fructosamine, FFA, triglycerides, total cholesterol, HDL, VLDL, LDL, and Apo-B levels.
Primary Efficacy Variable(s) and Analyses. The primary analysis was based on the change from baseline to endpoint in HbA1c level using the modified ITT and evaluable study populations. The analysis was done using an analysis of covariance (ANCOVA) model with treatment group and the baseline HbA1c value as predictors.
Secondary Efficacy Variable(s) and Analyses. Since all secondary efficacy parameters were continuous, they were analyzed in the same manner as described above for the primary efficacy parameter, with treatment group and baseline values for the relevant parameter used as predictors.

[2] = tested on: obese patients with type 2 diabetes mellitus; test: Meal tolerance test (MTT) at baseline and final visit of the clinical trial; assay type: in vivo, human
Experimental: Changes in area-under-the-curve (AUC) and 120-minute insulin and glucose levels during the meal tolerance test (MTT).
as §1, §2
AUC (and 120-minute) insulin and glucose levels during the MTT;.
FIGS. 1A, 1B and 2 illustrate the observation that D-chiro-inositol (DCI) prolongs pancreatic production of insulin in patients receiving sulfonylurea compounds. […] At baseline, a time when the subjects had been poorly managed on SU compounds alone, both the DCI group and the SU group responded similarly in their ability to produce insulin in response to the meal challenge. […] Without wishing to be bound by theory, the inventors contemplate that this progression is mediated by pancreatic failure and thus reduced insulin secretion. Therefore the amelioration of this effect by administration of DCI benefits the subject by the aforementioned medical improvements, but also will prevent the progression of diabetes by preventing pancreatic failure and/or decreased insulin production.

type 2 diabetic patients = test: Subgroup analysis of lipid lowering drug/D-chiro-inositol effects on LDL cholesterol; assay type: in vivo, human; settings: type 2 diabetic patients on sulfonylurea, with or without lipid lowering medications
Experimental: Due to the observation of lipid lowering effects seen in the DCI group, the clinical trial described in EXAMPLE 1 was further analyzed for synergistic interactions between D-chiro-inositol and lipid lowering medications. Certain patients within the trial were treated according to standard of care with HMC-CoA inhibitors (LIPITOR®, LESCOL®, ZOCOR®, MEVACOR®, PRAVACHOL®), gemfibrozil, or a combination of HMC-CoA and gemfibrozil. No inclusion or exclusion criteria were established for the efficacy of the lipid lowering drug efficacy in the patient population. As stated supra, these patients were being sub optimally treated with a sulfonylurea prior to beginning the clinical trial.

[3] = tested on: streptozotocin-treated rats, obese Zucker rats, or normal rats given a glucose load; settings: obese Zucker or glucose-loaded normal rats; cited from earlier work
[4] = tested on: obese insulin-resistant rhesus monkeys; settings: oral or intravenous route; cited from earlier work
diabetic population = settings: in combination with sulfonylurea or insulin; cited from earlier work
[5] = evaluable patients with fasting plasma glucose ≦180 mg/dL, 1200 mg/day oral with sulfonylureas
[6] = evaluable population, 1200 mg/day oral with sulfonylureas, 13 weeks
[7] = patients with fasting plasma glucose ≦180 mg/dL, 1200 mg/day oral with sulfonylureas

| Structure (SMILES) | Mean change (in %) in HbA1c levels from baseline to endpoint ([1]; all subjects using LOCF at endpoint, 1200 mg/day oral with sulfonylureas, 13 weeks) [%] | decrease in mean HbA1c level (%) from baseline to endpoint ([1]; evaluable patients with FPG≦180 mg/dL, value printed as size of the decrease) [%] | Apo-B, mean change [1, 5] [mg/dL] | difference to placebo in change of mean HbA1c level (%) ([1]; evaluable population) | FFA, mean change at endpoint [1, 6] [mEq/L] | decrease in mean HbA1c levels (%) from baseline to endpoint ([1]; evaluable population, value printed as size of the decrease) [%] | difference to placebo in change of mean HbA1c level (%) ([1]; patients with FPG≦180 mg/dL) | Mean change (in %) in HbA1c levels to endpoint ([1]; patients with fasting plasma glucose ≦180 mg/dL, LOCF at endpoint, 1200 mg/day oral with sulfonylureas) [%] | Mean change (in %) in HbA1c levels to Week 4 [1, 7] [%] | Mean change (in %) in HbA1c levels to Week 8 [1, 7] [%] | Change in insulin AUC from baseline to final (FIG. 2) ([2]; DCI+SU, scatter diagram of individual subjects, median, listed as DCI) | insulin response after a meal tolerance test, baseline versus final (FIGS. 1A, 1B) ([2]; DCI+SU, subjects with fasting blood glucose ≤180 mg/dl, three month timepoint, listed as DCI) | AUC insulin, mean change [2, 5] [μU/mL · hr] | 120-min. insulin, mean change at endpoint [2, 6] [μU/mL] | AUC insulin, mean change at endpoint [2, 6] [μU/mL · hr] | effect on LDL cholesterol (FIG. 3) (type 2 diabetic patients) | glycemic control [3] | disappearance rate of plasma glucose and insulin [4] | rate of mild to moderate hypoglycemia (diabetic population) |
| --- | --- | --- | --- | --- | --- | --- | --- | --- | --- | --- | --- | --- | --- | --- | --- | --- | --- | --- | --- |
| OC1C(O)C(O)C(O)C(O)C1O [D-chiro-inositol] | −0.16 | 0.53 | -4.00 | 0.36 | −0.07 | 0.16 | 0.80 | −0.53 | −0.47 | −0.57 | no significant negative scatter; also recorded: slightly increased the insulin AUC | maintained this response after the 13 week course of treatment; also recorded: maintains a constant insulin response over the testing period | 1070.8 | 3.50 | 484.4 | significantly reduced the increase of LDL cholesterol | significantly improved glycemic control | significantly increased the disappearance rate of both plasma glucose and insulin |  |
| CCc1ccc(CCOc2ccc(CC3SC(=O)NC3=O)cc2)nc1 (stereo not shown) [pioglitazone] |  |  |  |  |  |  |  |  |  |  |  |  |  |  |  |  |  |  | 1-2% |
